From paper PMC11643690, “Chelating Properties of N6O-Donors Toward Cu(II) Ions: Speciation in Aqueous Environments and Catalytic Activity of the Dinuclear Complexes” (Molecules, 2024)
Entries after “also recorded” stand apart in the source; their conditions may differ.

Assays:
[1] = UV–Vis titration of ligands with Cu(ClO4)2, binding constant by non-linear regression; conditions: difference of stability constants
Description: To determine the overall equilibrium constant β1,2 (Kbind), a solution of the ligand was titrated with aliquots of 0.2 equivalents of Cu(II). Monitoring the formation of the complex via UV–Vis spectroscopy, the absorbance around 260 nm, 300 nm, 450 nm, and 700 nm increased during the titration (Figure 3a) in all cases. The latter two bands are visible only at high concentrations (>0.1 mM). These changes are caused by the formation of the complex and the disappearance of the free ligand.
In Figure 3b, the linear increase in the absorbance change (ΔAbs) at 240 nm, upon an increase in Cu(II) amount, is evident, leading to a sharp plateau around 2 equivalents. […] The binding constants were determined by non-linear regression analysis of Equation (2), (2) ∆A/b=(K1∆A1Cu+ β1,2∆A2Cu^2)/1+K1Cu+ β1,2Cu^2 which traces the correlation “ΔAbs/b vs. Cu(II) concentration,” according to K. Connors. In this equation, ΔA is the differences in absorbance at a certain wavelength, b is the optical path (1 cm), K1 is the constant for the formation of the complex 1:1, and β1,2 is the global formation constant (Kbind) for the complex 1:2. ΔA1 and ΔA2 are the differences in absorbance due to the formation of the 1:1 complex and the 1:2 complex, respectively. […]
(§1) UV-vis spectra of ligands and complexes were recorded in a quartz cuvette, with 1 cm of optical path. […]

[2] = UV–Vis titration of HL-CH3 with Zn(ClO4)2, binding constant; conditions: Zn(II); 0.1 mM ligand, 5% v/v MeOH/BBS 50 mM, pH 7.4
Description: To evaluate the selectivity of these ligands towards copper, the same titrations were performed with different metal salts: Fe(ClO4)2, Mn(ClO4)2, and Zn(ClO4)2, monitoring the methyl-substituted ligand (Figures S39–S41). These metal ions were chosen because they are also divalent and common in biological matrixes.
For the determination of the binding constant between metals and ligands, a solution of the latter was titrated with 0.2 eq of metal for each addition. The titrating solutions were 10 mM and 100 μM for Cu(ClO4)2 versus 0.1 mM and 1 μM for the ligands in 5% v/v MeOH/BBS (50 mM, pH 7.4), respectively. […] The absorbance variation was monitored from 200 nm to 800 nm at 25 °C. […]
as §1
The titrating solutions were 10 mM and 100 μM for Cu(ClO4)2 versus 0.1 mM and 1 μM for the ligands in 5% v/v MeOH/BBS (50 mM, pH 7.4), respectively. […] The absorbance variation was monitored from 200 nm to 800 nm with a Varian Cary 50 instrument, thermostated at 25 °C.
The binding constants were then determined by nonlinear regression analysis of the plot “ΔAbs/b vs Cu(II) concentration” (Equation 7 ), according to K. Connors, The Measurement of Molecular Complex Stability, Madison, Wisconsin, Wiley, 1987[5]. […]
ΔA: absorbance at a certain wavelength. […]

Kbind [2]: 2.49 × 10^8 M^−2 | log(Kbind) [2]: 8.39
SMILES: Cc1cc(CN(Cc2ccccn2)Cc2ccccn2)c(O)c(CN(Cc2ccccn2)Cc2ccccn2)c1 [HL-CH3, 2,6-bis[(bis(2-pyridylmethyl)amino)methyl]-4-methylphenol]
binding preference for copper ions over Mn2+, Fe2+, Zn2+ [1]: almost three orders of magnitude; also recorded: approximately three orders of magnitude higher
